Patent publication US11726079B2, “Lighting systems and methods of using lighting systems for in vitro potency assay for Photofrin” (Concordia Laboratories, Inc., priority 2012, dated 2023)
Values joined by “and” are separate entries in the source; they are usually repeats but may differ in a detail not shown here. Equal entries are not always repeated. Marks after values point to notes of the source that are not given here.

Test system: A549 human lung carcinoma cells
Assay: In vitro potency assay for Photofrin®: A549 cells, 4 h drug absorption, wash, 10 min irradiation at 400-650 nm, 24 h, XTT viability, 4PL EC50
Type: cell-based
Set-up: key to EC50-XTT / EC50 STD / EC50 Test: EC50 as Photofrin concentration in μg/mL (4PL inflection point)
Conditions: for EC50 STD / EC50 Test: in µg/mL; for EC50 Test / EC50 Test, Mean: Test (35 μg/mL high test drug concentration)
Description: Cell passaging of A549 cells is performed using fixed seeding densities to reduce assay variation resulting from cell culture conditions. […] Working in very low light conditions, Photofrin® is reconstituted in normal saline to 2.5 mg/mL and diluted further in culture medium at twice the desired final assay concentration, typically 140 μg/mL. A series of two-fold dilutions were then prepared from the 140 μg/mL solution and the diluted drug was added to the cells at 1:1 (v/v) according to the diagram shown in FIG. 11.
[…] The plate is then removed from the incubator, the drug is aspirated, the wells are washed with Dulbecco's phosphate buffered saline (DPBS) and fresh, pre-warmed medium is added to the wells. […] […] The wells covered with foil strips are important controls for the activity of Photofrin® in the absence of irradiation and the effect of light on the cells in the absence of drug.
The optical absorbance of the wells in column 1 (high drug concentration, no cells) is evaluated for absorption at 450 nm to ensure that the drug is not interfering with the XTT assay. The percent viability of each of the wells in columns 2-9 and 11 is calculated relative to the mean value of column 10 (cell control, no drug, no light). For each dose response obtained, a four parameter logistic (4PL) nonlinear regression analysis is performed of the percent viability versus the log-Photofrin® concentration. The point of inflection of the regression curve (C value) is defined as the EC50 and used in the calculation of relative potency. Curve fitting and calculation of the EC50 is performed with Softmax v5.4.2 (Molecular Devices, Inc.) or Prism v.5.04 (GraphPad, Software Inc.) software. The mean percent viability of columns 9 and 11 is also calculated.
• 1. Materials and Reagents • 1.1. A549 Human Lung Carcinoma (ATCC—Cat. No.: CCL-185) • 1.2. 25 cm^2 Flasks (Corning—Cat. No.: 431463, or equivalent) • 1.3. 75 cm^2 Flasks (Corning—Cat. No.: 431464, or equivalent) • 1.4. 50 mL tubes (Fisher Scientific—Cat. No. 17-512F, or equivalent) • 1.5. Hemacytometer • 1.6. RPMI-1640 (+) phenol red (Lonza—Cat. No.: 12-167F, or equivalent) • 1.7. HI-FBS (Gibco—Life Technologies—Cat No.: 10082-147, or equivalent) • 1.8. 200 mM L-Glutamine (Lonza—Cat. No.: 17-605E, or equivalent) • 1.9. 0.25% Trypsin-EDTA (Gibco—Cat. No.: 25200-056, or equivalent) • 2. Instruments • 2.1. Forma Scientific centrifuge with swinging bucket rotor (Model 5682, or equivalent) • 2.2. Water bath set at 37° C. • 2.3. […] Prepared Reagents • 3.1. RPMI-1640 Complete Media • 3.1.1. 500 mL bottle of RPMI-1640 basal media containing phenol red • 3.1.2. Add 50 mL HI-FBS • 3.1.3. Add 5.5 mL of 200 mM L-Glutamine • 4. Procedure • 4.1. Remove one vial of A549 lung carcinoma cells from liquid nitrogen storage and after ensuring that the vial is tightly closed, rapidly thaw vial by holding all but the top of the vial submerged in a 37° C. water bath until the vial contents begins to thaw but while ice still remains. • 4.2. Liberally spray the vial with 70% ethanol, wipe with tissue, and place into a laminar flow hood. • 4.3. Transfer the contents of the vial to a 50 mL conical tube containing 9 mL RPMI-1640 complete medium containing phenol red (Step 3.1) (hereafter referred to as complete medium in this method). • 4.4. Centrifuge the tube in a swing bucket rotor set at 1200 RPM (220 RCF) for five minutes at room temperature. • 4.5. Discard supernatant and gently flick the tube to resuspend the cells in the residual volume left in the tube. • 4.6. Add 5 mL complete medium, transfer the cell solution to a 25 cm^2 flask, and then place the flask into a 37° C. incubator with 5% CO2. • 4.7. Monitor the flask daily and when the cells reach approximately 80% confluence, remove the media, and wash the cells by adding 2 mL DPBS to the flask. Ensure that all cells are rinsed and discard the DPBS. • 4.8. Add 1 mL 0.25% trypsin-EDTA to prewash the cells, tip flask to coat all cells, and discard the trypsin. • 4.9. […]

ratio of the standard to test sample EC50 (FIG. 12, standard preparation versus preparation containing half of the nominal activity): 0.5
EC50 STD (Standard sample (70 μg/mL high test drug concentration), A549 cells at passage P10): 10.5
EC50 STD (Standard sample (70 μg/mL high test drug concentration), A549 cells at passage P17): 10.1
EC50 STD (Standard sample (70 μg/mL high test drug concentration), Inter-operator Assay, AB-1): 6.37
EC50 STD (Standard sample (70 μg/mL high test drug concentration), Inter-operator Assay, AB-2): 8.23
EC50 STD, Mean (Standard sample (70 μg/mL high test drug concentration), Inter-operator Assay, mean of operator AB plates): 7.3 µg/mL
EC50 STD (Standard sample (70 μg/mL high test drug concentration), Photofrin® absorption time 3.5 hours): 10.4
EC50 STD (Standard sample (70 μg/mL high test drug concentration), absorption time 4.0 hours): 10.2
EC50 STD (Standard sample (70 μg/mL high test drug concentration), absorption time 4.5 hours): 9.23
EC50 STD (Standard sample (70 μg/mL high test drug concentration), irradiation time 8 minutes): 12.0
EC50 STD (Standard sample (70 μg/mL high test drug concentration), irradiation time 9 minutes): 12.0
EC50 STD (Standard sample (70 μg/mL high test drug concentration), irradiation time 10 minutes): 11.1
EC50 STD (Standard sample (70 μg/mL high test drug concentration), irradiation time 11 minutes): 11.6
EC50 STD (Standard sample (70 μg/mL high test drug concentration), irradiation time 12 minutes): 10.8
EC50 STD (Standard sample (70 μg/mL high test drug concentration), operator AB Pilot Assay-1): 6.62
EC50 STD (Standard sample (70 μg/mL high test drug concentration), operator AB Pilot Assay-2): 6.76
EC50 STD (Standard sample (70 μg/mL high test drug concentration), post-irradiation incubation time 22 hours): 9.16
EC50 STD (Standard sample (70 μg/mL high test drug concentration), post-irradiation incubation time 24 hours): 10.2
EC50 STD (Standard sample (70 μg/mL high test drug concentration), post-irradiation incubation time 26 hours): 9.55
EC50 STD (Standard sample (70 μg/mL high test drug concentration), post-irradiation temperature 35° C.): 9.68
EC50 STD (Standard sample (70 μg/mL high test drug concentration), post-irradiation temperature 37° C. (nominal, two experiments)): 10.8 and 9.9
EC50 STD (Standard sample (70 μg/mL high test drug concentration), post-irradiation temperature 39° C.): 8.32
Standard Sample EC50 (Standard sample, 70 μg/mL high test concentration, Plate 1 (placement Standard, Test; left to right dilution; controls in columns 9-11)): 11.1 µg/mL
Standard Sample EC50 (Standard sample, 70 μg/mL high test concentration, Plate 2 (placement Test, Standard; left to right dilution; controls in columns 9-11)): 10.7 µg/mL
Standard Sample EC50 (Standard sample, 70 μg/mL high test concentration, Plate 3 (right to left dilution; controls in columns 9-11)): 11.2 µg/mL
Standard Sample EC50 (Standard sample, 70 μg/mL high test concentration, Plate 4 (placement Standard, Test; left to right dilution; controls in columns 9-11)): 11 µg/mL
Standard Sample EC50 (Standard sample, 70 μg/mL high test concentration, Plate 5 (left to right dilution; controls in columns 2-4)): 10.8 µg/mL
Standard Sample EC50, Mean (Standard sample, 70 μg/mL high test concentration, mean across Plates 1-5 of positional analysis): 11 µg/mL
EC50 Test (A549 cells at passage P10, wide confidence interval due to poor curve fitting): 18.9**
EC50 Test (A549 cells at passage P17): 19.2
EC50 Test (Inter-operator Assay, AB-1): 13.7
EC50 Test (Inter-operator Assay, AB-2): 14.6
EC50 Test, Mean (Inter-operator Assay, mean of operator AB plates): 14.2 µg/mL
EC50 Test, Mean (Inter-operator Assay, mean of operator KP plates): 20 µg/mL
EC50 Test (Inter-operator Assay, operator KP, both plates KP-1): 20.1 and 19.8
EC50 Test (absorption time 3.5 hours): 19.5
EC50 Test (absorption time 4.0 hours): 20.1
EC50 Test (absorption time 4.5 hours): 16.1
EC50 Test (irradiation time 8 minutes): 24.5
EC50 Test (irradiation time 9 minutes): 25.2
EC50 Test (irradiation time 10 minutes): 22.8
EC50 Test (irradiation time 11 minutes): 20.9
EC50 Test (irradiation time 12 minutes): 21.0
EC50 Test (operator AB Pilot Assay-1): 16.1
EC50 Test (operator AB Pilot Assay-2): 12.6
EC50 Test (post-irradiation incubation time 22 hours): 16.7
EC50 Test (post-irradiation incubation time 24 hours): 18.9
EC50 Test (post-irradiation incubation time 26 hours): 16.6
EC50 Test (post-irradiation temperature 35° C.): 21.6
EC50 Test (post-irradiation temperature 37° C. (nominal, two experiments)): 19.9 and 20.0
EC50 Test (post-irradiation temperature 39° C.): 16.1
Substance: porfimer sodium [Photofrin®]
EC50 Test (seeding density 0.8 × 10^4 cells/well): 21.1
EC50 Test (seeding density 1.2 × 10^4 cells/well): 27.9
EC50 Test (seeding density 1.9 × 10^4 cells/well): 21.3
